“Also recorded” adds a separate entry of the source. Like-named read-outs stand apart in the source and are kept apart here.
Key:
[1] = PK profile, IV bolus compared with IN administration (FIG. 9); assay type: in vivo; settings: rat, plasma
Source text: Thus, the amount of aminosterol in the bloodstream is too low to account for the observed pharmacological effect. This means that when administered IN, an aminosterol is having a pharmacological effect via a mechanism other than via plasma concentration of the drug.

[2] = In vivo brain distribution of radiolabeled Aminosterol 1436 after ICV and IV administration; design: species or system rat; settings: 3H-labeled
Source text: The purpose of this example was to evaluate the in vivo distribution of Aminosterol 1436 following intracerebroventricular (ICV) and intravenous (IV) administration to rats. ICV injection is an invasive injection technique of substances directly into the cerebrospinal fluid in cerebral ventricles to bypass the blood brain barrier. The results described below detail how aminosterols such as Aminosterol 1436 localize in the brain following in vivo administration, regardless of the route of administration.
Radiolabeled Aminosterol 1436 was injected into rats by two different forms of administration: ICV and IV administration.

[3] = Plasma pharmacokinetics after intranasal (IN) administration; assay type: in vivo, Sprague Dawley® (SD) rats
Source text: (§1) The purpose of this example was to evaluate the in vivo distribution and function of aminosterols, such as Aminosterol 1436 and squalamine, following intranasal administration. This experiment relates to the amount of drug needed to obtain a therapeutic result, based on an IN route of administration. The results described below detail that aminosterols such as Aminosterol 1436 act at the level of the hypothalamus following in vivo administration, regardless of the route of administration.
(§2) Pharmacokinetic information for these tests can be found in the tables below.

[4] = Weight change after IP or IN administration (FIG. 8); assay type: in vivo, mice
Experimental: The purpose of this example was to evaluate and compare the impact on weight following administration of an aminosterol such as Aminosterol 1436 to mice via IP or IN.
Mice were administered: (i) intraperitoneally 1 mg/kg or 10 mg/kg of Aminosterol 1436, (ii) intranasally 0.4 mg/kg of Aminosterol 1436, or (iii) a saline control administered IN. Weight of the mice was then measured for 10 days post-administration.

[5] = Food intake and body weight after IP or ICV administration (FIG. 2B, 2C); assay type: in vivo; settings: 10 and 40 μg ICV, 5 mg/kg IP, 10 day period
Source text: The purpose of this example was to evaluate the in vivo distribution of the aminosterol Aminosterol 1436 following intraperitoneal administration (IP) and ICV administration, and to determine the impact the drug has on food intake and body weight when administered IP and ICV.
This experiment is relevant as the areas of the brain where the aminosterol Aminosterol 1436 localized upon administration are known to control feeding behavior and appetite.

[6] = CSF concentration after intranasal (IN) administration; assay type: in vivo, Sprague Dawley® (SD) rats
Source text: as §1, §2

[7] = Sprague-Dawley, rat, inhaled or intranasal, plasma, 0.5 mg/kg IN dose, mean
[8] = plasma, 0.5 mg/kg IN dose, mean (Table 4)

## CC(C)[C@@H](CC[C@@H](C)[C@H]1CC[C@H]2[C@@H]3[C@H](O)C[C@H]4C[C@@H](NCCCNCCCCNCCCN)CC[C@]4(C)[C@H]3CC[C@]12C)OS(=O)(=O)O [Aminosterol 1436]
[1]; other: intranasal, IN 0.5 mg/kg compared with IV bolus 2 mg/kg
  bioavailability: ~20%
[1]; IV bolus 2 mg/kg, read-out: PK profile value after IV bolus injection (AUC)
  AUC: 190000 ng·h/mL
[2]; ICV administration
  Site of localization in brain: localized to the same regions of the brain
[2]; IV administration
  Site of localization in brain: localized in the hypothalamus
[3]; IN versus peripherally injected
  Blood levels after intranasal administration relative to peripherally injected: 10 times
[3]; [7]
  AUC(0-inf): 17900 ng·h/mL
  AUC(0-t): 9370 ng·h/mL
  Cmax: 1680 ng/mL
  half-life: 7.59 h
[3]; Sprague-Dawley, rat, inhaled or intranasal, plasma, 0.5 mg/kg IN dose, mean, read-out: MRTInf_obs
  MRT inf: 11.1 h
[3]; Sprague-Dawley, rat, inhaled or intranasal, plasma, 0.5 mg/kg IN dose, mean, read-out: Tmax
  Tmax: 4 h
[4]; 0.4 mg/kg IN, 10 days post-administration
  Decrease in weight, comparison in words: comparable to 10 mg/kg of intraperitoneally administered Aminosterol 1436
[4]; 0.4 mg/kg intranasal (IN)
  Decrease in weight: about 5%
[4]; 1 mg/kg IP, compared with IN saline control
  Effect on weight (anti-feeding effect): compared similarly to the intranasally administered saline control; also recorded: no anti-feeding effect
[4]; 10 mg/kg IP
  Decrease in weight: about 19%
[5]
  Effect on food intake: significant impact on food intake
[6]; Sprague-Dawley, rat, in vivo, 0.5 mg/kg
  Drug found in CSF: No squalamine lactate or Aminosterol 1436 was found in CSF

## CC(C)[C@@H](CC[C@@H](C)[C@H]1CC[C@H]2[C@@H]3[C@H](O)C[C@H]4C[C@@H](NCCCNCCCCN)CC[C@]4(C)[C@H]3CC[C@]12C)OS(=O)(=O)O.C[C@H](O)C(=O)O.O [Squalamine Lactate]
[3]; [8]
  AUCInf: 7863 ng·h/mL
  AUClast: 5296 ng·h/mL
  MRTInf_obs: 7.12 H
  T1/2: 4.55 H
  Tmax: 1.00 H
[6]; CSF, 0.5 mg/kg IN
  Drug found in CSF: No squalamine lactate or Aminosterol 1436 was found in CSF

— patent US20210260078A1, “LOW DOSAGE INTRANASAL AMINOSTEROL DOSAGE FORMS AND METHODS OF USING THE SAME” (Enterin, Inc., priority 2018, published 2021)
